Data from patent US20250114331A1, “CONCURRENT TARGETING OF ONCOGENIC PATHWAYS TO ENHANCE CHEMOTHERAPY AND IMMUNOTHERAPY” (THE JOHNS HOPKINS UNIVERSITY, priority 2021, published 2025).
Like-named read-outs stand apart in the source and are kept apart here.

Assays:
H1299 and H1437 cells = assay: qRT-PCR of YAP1 and STAT3 pathway genes after drug treatment for 72 hours; format: cell-based, human
Method: qRT-PCR. The mRNA expression level of each gene was determined by qRT-PCR. […] We quantified the β-actin mRNA level to normalize the expression levels of the targeted genes. Each sample was tested in triplicate and run three times. Each graph shown in our figures indicates the average mRNA expression level of targeted genes compared with the β-actin expression level, with standard error of mean. To determine doses of these drugs that are effective for pathway inhibition, H1299 and H1437 cells were treated with verteporfin or S3I-201 for 72 hours.

H1299 xenografts = assay: H1299 xenograft treatment; format: in vivo, NSG mice; conditions: verteporfin 50 mg/kg i.p. three times a week; S3I-201 5 mg/kg i.p. every day
From the text: For therapeutic experiments, 4- to 5-week-old NOD/SCID/IL2Ry−/− (NSG) mice were obtained from the Johns Hopkins Medical Institute's (Baltimore, MD) animal care facility. We injected H1299 cells (1×106) and H1437 cells (1×106), which were suspended in the mixture as described above, subcutaneously into both flanks. For the patient-derived xenograft (PDX) models, 13 PDX blocks (CTG0162, 0178, 0502, 0848, 1309, 1351, 1358, 1361, 1762, 1885, 2017, 2481, and 2708) were obtained from Champion Oncology. All these PDXs were established from primary lung adenocarcinoma tumors. The tumor tissues were cut into 4×2 mm pieces and implanted in the subcutaneous spaces of both flanks. When tumor volumes reached to 200+50 mm3, mice were randomly assigned to six experimental groups [control, chemo (cisplatin+gemcitabine), chemo+verteporfin, chemo+S3I-201, “all” (cisplatin+gemcitabine+verteporfin+S3I-201), and verteporfin+S3I-201] at 5 mice per group. Cisplatin (Sigma-Aldrich; #P4394), gemcitabine (Medkoo; #100410), S3I-201 (MedKoo; #202541), and verteporfin (Sigma-Aldrich; #1711461) were used to treat the mice. Cisplatin (2.5 mg/kg) and gemcitabine (120 mg/kg) were administrated via intraperitoneal injection once a week (22). […] Each tumor volume was measured every 3 days. Therapeutic efficacy was evaluated from percentage change of the tumor volume compared with the tumor size before treatment.

UPPL 595 cells = assay: Wound healing; format: cell-based, mouse; conditions: VP treated versus control cells
MB49, UPPL595 and BBN975 = assay: FABP4 expression and lipid droplet quantification after VP, mouse UCB cell lines; format: cell-based
Method: RNA extraction and quantitative reverse transcriptase polymerase chain reaction (Q-RT-PCR). Total RNA from cell lines was isolated using the RNeasy Plus Mini Kit (Qiagen, Germantown, USA), according to the manufacturer's protocol. This total RNA was converted to cDNA using the SuperScript III First-Strand Synthesis System (Life technologies, Carlsbad, USA), which was then used as a template for qRT-PCR. qRT-PCR was performed using the Fast SYBR Green Master Mix (Thermo Fisher Scientific, Waltham, USA) on a Quant studio 6 Fast Real-Time PCR System (Life technologies) in triplicate. SDS software (Applied Biosystems) was used to determine cycle threshold (Ct) values. The expression levels were quantified relative to β-actin using the 2-ΔΔCt method. YAP1 influences the accumulation of lipid droplets in cancer cells. […] Therefore, apart from investigating the altered regulation of intracellular signaling cascades, the present inventors also studied cellular metabolism in response to YAP1 modulation. […] It was reported that FABP4 is a critical molecule in accumulation of lipid droplets in the intracellular compartments (45). […] As increased amount of L-lactate correlated with more glycolysis and poor prognosis of cancer (46), the present inventors quantified L-lactate in mouse and human UCB cells with YAP1 modulation.

T24, BFTC905 and BFTC909 = assay: Lipid droplet quantification after VP, human UCB cell lines; format: cell-based; conditions: VP treated
From the text: YAP1 influences the accumulation of lipid droplets in cancer cells. […] Therefore, apart from investigating the altered regulation of intracellular signaling cascades, the present inventors also studied cellular metabolism in response to YAP1 modulation. […] It was reported that FABP4 is a critical molecule in accumulation of lipid droplets in the intracellular compartments (45). […] It was also observed that when the culture media was supplemented with oleic acid (commonly used as an inducer for lipid droplet formation), there is an increase accumulation of lipid droplets in the YAP1 expressing cells compared to the KD cells (FIG. 29C). […] As increased amount of L-lactate correlated with more glycolysis and poor prognosis of cancer (46), the present inventors quantified L-lactate in mouse and human UCB cells with YAP1 modulation.

colorectal cancer cells = conditions: in mice and in cells cultured under hypoxic and nutrient-deprived conditions; cited from earlier work

## C=Cc1c(C)c2cc3nc(cc4[nH]c(cc5nc(cc1[nH]2)C(C)=C5CCC(=O)O)c(CCC(=O)OC)c4C)[C@@]1(C)C3=CC=C(C(=O)OC)[C@H]1C(=O)OC [verteporfin, 3-[(23S,24R)-14-ethenyl-5-(3-methoxy-3-oxopropyl)-22,23-bis(methoxycarbonyl)-4,10,15,24-tetramethyl-25,26,27,28-tetraazahexacyclo[16.6.1.13,6.18,11.113,16.019,24]octacosa-1,3,5,7,9,11(27),12,14,16,18(25),19,21-dodecaen-9-yl]propanoic acid]
H1299 and H1437 cells
  mRNA expression of YAP1 and downstream targets CTGF and CYR61: suppressed mRNA expressions of YAP1 and its downstream targets, such as CTGF and CYR61, in a dose-dependent manner
H1299 and H1437 cells; listed as Verteporfin
  mRNA expression of YAP1 and downstream targets CTGF and CYR61: suppressed mRNA expression of YAP1, and its downstream targets, CTGF and CYR61, as the drug concentration was increased
H1299 xenografts
  tumor growth: inhibited growth
UPPL 595 cells
  wound closure: significant difference in wound closure
MB49, UPPL595 and BBN975
  expression level of FABP4: significantly downregulated
T24, BFTC905 and BFTC909
  accumulation of intracellular lipid droplets: decreases the accumulation of intracellular lipid droplets
Colorectal cancer cells
  killing of colorectal cancer cells by protein oligomer accumulation: selectively killed colorectal cancer cells
